Experimental data: patent publication US20240115577A1, “SMALL MOLECULE REGULATORS OF ALVEOLAR TYPE 2 CELL PROLIFERATION FOR THE TREATMENT OF PULMONARY DISEASES” (THE SCRIPPS RESEARCH INSTITUTE, priority 2021, published 2024)
“Also recorded” adds a separate entry of the source. Like-named read-outs stand apart in the source and are kept apart here.

How the values were obtained:
Primary human AEC2s = test: AEC2 proliferation assay (Ki67 high content imaging); format: cell-based; conditions: for EC50: Homo sapiens
Method: To identify small molecules capable of proliferating AEC2s, as disclosed herein, we first established a culture system with primary human small airway epithelial cells (SAECs) from a commercial source.
AEC2 proliferation assay. Primary human AEC2s were plated at a density of 1,500 cells per well in black 384-well plates (Greiner) coated with 10 ug/mL. Laminin (Life Technologies) in 50 μL of Small Airway Epithelial Cell Growth Medium (Lonza) without EGF, retinoic acid and with 5% BPE. 100 nL of compound dissolved in DMSO was then delivered using a Biomek FX instrument (Beckman Coulter) fitted with a pintool head (V&P Scientific).

[1] = IT pharmacokinetics of dutogliptin (1) and dutogliptin boronate (15); format: in vivo, mouse; conditions: mouse, in vivo
Method: Like other […]. Dutogliptin (1) dosed IT in mice with PBS solution quickly cleared in lung (<24h. Table 8A). […] The parent drug dutogliptin was detected in plasma and lung. […] The drug was retained in the lung for over 48 h. The data clearly illustrated the unexpected lung retention ability of boronate prodrug 15.

HbA1c = conditions: once-a-day oral doses of 200 mg and 400 mg; cited from earlier work
[2] = test system: acute lung injury induced by LPS; test: LPS-induced acute lung injury (ALI) model; format: in vivo, mouse; conditions: for minimal efficacious dose in LPS lung injury model / Efficacy in LPS acute lung injury model, result in words: oral; for Efficacy in LPS acute lung injury model, result in words: histological scoring, BALF protein
Method: Experimental methods of Acute Lung Injury (ALI) model
LPS from E. coli […] (Sigma) was used to induce acute lung injury in mice. Body weight matched (19 gram˜22 gram) female C57BL/6J mice at 9-11 weeks of age were selected to use in ALI model.
Vehicle control or DPP4 inhibitors were dosed at 10 ml/kg through oral gavage once or twice a day selected based on PK profile. […] Vehicle control or DPP4 inhibitors were dosed at 2 ml/kg through a 22 g flexible catheter every other day.
DPP4 inhibitors or vehicle control were given to mice starting from one day before LPS injection (day −1).
All animals were sacrificed at day 3.5 after LPS injection. Bronchoalveolar lavage fluid (BALF) was retrieved using standard method. 1 ml 4% formalin was used to inflate the lung, which was subsequently fixed in 4% formalin for 24 hours and preserved in 70% EtOH until histological process.
For readouts, total protein content in BALF was quantified using BCA assay: pulmonary inflammation and damage were assessed using H&E staining.

[3] = test system: bleomycin-induced lung fibrosis; test: Bleomycin-induced lung fibrosis model; format: in vivo, mouse; conditions: for Dose required in mouse bleomycin / Dose required in mouse bleomycin, multiple of HED: Table 6; for Efficacy in bleomycin-induced lung fibrosis, result in words: oral, high doses
Method: Experimental Methods of Bleomycin Model Bleomycin (Hospira) was used to induce lung fibrosis in mice. Body weight matched (24 gram˜28 gram) male C57BL/6J mice at 10-12 weeks of age were selected to use in bleomycin model. For orally delivered DPP4 inhibitors. compounds were dissolved in PBS resulting in clear solution. […] For intratracheally delivered DPP4 inhibitors, compounds were dissolved in PBS resulting in clear solution. […] 0.5 U/kg Bleomycin or PBS in sham group was intratracheally injection into mice lung at day 0. […] All animals were sacrificed at day 20 after bleomycin injection. Bronchoalveolar lavage fluid (BALF) was retrieved using standard method. 1 ml 4% formalin was used to inflate the lung, which was subsequently fixed in 4% formalin for 24 hours and preserved in 70% EtOH until histological process. For readouts, body weight was measured every day; total protein content in BALF was quantified using BCA assay; pulmonary fibrosis was assessed using Masson's trichrome staining.

[4] = Pharmacokinetic profiling of four gliptins (oral, IT or OP); format: in vivo, mouse; conditions: for fraction of oral dose required by pulmonary (IT or OP) delivery for similar lung exposure: oral 100 mg/kg versus IT/OP 20 mg/kg
Method: B. Pharmacokinetic profiling. […] Thus, four of the five […] currently approved by the U.S. FDA were each administered to mice orally (100 mg/kg) or through intratracheal (IT) or oropharyngeal (OP) routes (20 mg/kg).

oral glucose tolerance = conditions: rodent models of diabetes; cited from earlier work
phospholipidosis = test: Phospholipidosis assay in vitro; conditions: FIG. 7A; listed as Linagliptin
[5] = in vivo; cited from earlier work
[6] = Table 4, promotion of AEC2 proliferation, read-out: AEC2 EC50
[7] = Table 5, read-out: AEC2 proliferation
[8] = 4.4 mg/kg, Lung concentration of dutogliptin, Mean
[9] = 4.4 mg/kg, Lung concentration of dutogliptin, individual animals

Row | Structure (SMILES) | EC50 (Primary human AEC2s; [6]) [nM] | EC50 (Primary human AEC2s; [7]) [nM] | fraction of oral dose required by pulmonary (IT or OP) delivery for similar lung exposure [4] | AEC2 proliferation, result in words (Primary human AEC2s) | Dose required in mouse ALI ([2]; Table 6) | minimal efficacious dose in LPS lung injury model [2] [mg/kg] | Dose required in mouse bleomycin [3] | Dose required in mouse bleomycin, multiple of HED [3] | Efficacy in bleomycin-induced lung fibrosis, result in words [3] | dose with efficacy in OGTT model (oral glucose tolerance) [mg/kg] | Dose required in mouse ALI, multiple of HED ([2]; Table 6) | Efficacy in LPS acute lung injury model, result in words ([2]; high doses) | other results
1 | Cc1cc(N2CCN([C@@H]3CN[C@H](C(=O)N4CCSC4)C3)CC2)n(-c2ccccc2)n1 [Cpd 8, ((2S,4S)-4-(4-(3-methyl-1-phenyl-1H-pyrazol-5-yl)piperazin-1-yl)pyrrolidin-2-yl)(thiazolidin-3-yl)methanone] | – | – | – | – | – | – | – | – | – | – | – | – | Adverse Events [5]: 160 mg/day cardiac safety
2 | N[C@@H](CC(=O)N1CCn2c(nnc2C(F)(F)F)C1)Cc1cc(F)c(F)cc1F [Sitagliptin] | – | 560 | one-fifth | promote AEC2 proliferation to the same magnitude as NVP-728 | 100 mg/kg BID | 100 | 100 mg/kg mg/kg BID | – | efficacious; also recorded: ameliorative efficacy; also recorded: robust protection | 3 to 30 | (10-20x HED) | efficacious; also recorded: promote repair; also recorded: dramatic improvements | proliferative AEC2s (KI-67 SFPTC double positive cells) ([2]; LPS model): substantial increase; total number of cells (all nuclei) or Ki-67 positive cells in the lung ([2]; LPS model): does not significantly increase; cytokine or BALF levels at early timepoints ([2]; high doses, time course): do not affect; protection in bleomycin model, co-treatment with Nintedanib (Ofev) ([3]; Bliss independence calculations): synergistic protection

Now from value to compound, other results behind:

Row | EC50 (Primary human AEC2s; [6]) [nM] | EC50 (Primary human AEC2s; [7]) [nM] | fraction of oral dose required by pulmonary (IT or OP) delivery for similar lung exposure [4] | Structure (SMILES) | AEC2 proliferation, result in words (Primary human AEC2s) | Dose required in mouse ALI ([2]; Table 6) | minimal efficacious dose in LPS lung injury model [2] [mg/kg] | Dose required in mouse bleomycin [3] | Dose required in mouse bleomycin, multiple of HED [3] | Efficacy in bleomycin-induced lung fibrosis, result in words [3] | dose with efficacy in OGTT model (oral glucose tolerance) [mg/kg] | Dose required in mouse ALI, multiple of HED ([2]; Table 6) | Efficacy in LPS acute lung injury model, result in words ([2]; high doses) | other results
3 | 280 | 280 | – | O=C(CN[C@@H]1CCNC1)N1CCC[C@H]1B(O)O [Cpd 1, ((R)-1-(((R)-pyrrolidin-3-yl)glycyl)pyrrolidin-2-yl)boronic acid] | – | – | – | – | – | – | – | – | – | time to clearance from lung [1]: < 24 h; concentration at 3 h ([1]; 4.4 mg/kg, Bronchoalveolar lavage fluids concentration of dutogliptin, Mean): 309 ng/mL; concentration at 3 h ([1]; 4.4 mg/kg, Bronchoalveolar lavage fluids concentration of dutogliptin, individual animals): 400 ng/mL; concentration at 3 h [1, 8]: 6550 ng/g; concentration at 7 h [1, 8]: 4560 ng/g; concentration at 3 h [1, 9]: 6800 ng/g; concentration at 7 h [1, 9]: 3800 ng/g; concentration at 24 h [1, 9]: 3720 ng/g; HbA1c versus placebo (HbA1c): statistically reduced
4 | 650 | 650 | one-fifth | N#C[C@@H]1C[C@@H]2C[C@@H]2N1C(=O)[C@@H](N)C12CC3C[C@@H](C1)C[C@@](O)(C3)C2 [Cpd 4, (1S,3S,5S)-2-((2S)-2-amino-2-((1S,3R,5S)-3-hydroxyadamantan-1-yl)acetyl)-2-azabicyclo[3.1.0]hexane-3-carbonitrile] | promote AEC2 proliferation to the same magnitude as NVP-728 | 50 mg/kg BID (10- | 50 | 50 mg/kg BID | (10-20x HED) | efficacious | 0.5 to 5 | – | – | Efficacy in LPS acute lung injury model, result in words ([2]; high doses, listed as Saxagliptin): efficacious; also recorded: promote repair; also recorded: dramatic improvements
5 | – | – | one-fifth | CC#CCn1c(N2CCC[C@@H](N)C2)nc2c1c(=O)n(Cc1nc(C)c3ccccc3n1)c(=O)n2C [Cpd 5, (R)-8-(3-aminopiperidin-1-yl)-7-(but-2-yn-1-yl)-3-methyl-1-((4-methylquinazolin-2-yl)methyl)-3,7-dihydro-1H-purine-2,6-dione] | – | 1 mg/kg QD | – | >10 mg/kg qD | (>20x HED) | efficacious | – | model (2x HED) | efficacious | doses with antagonistic activity, repeat dosing ([2]; FIG. 7B): ≥ 2 mg/kg; efficacious dose, repeat dosing ([2]; FIG. 7B): 1 mg/kg; dose toxic in mouse ALI model ([2]; Table 6): 2 mg/kg; lung exposure over the evaluated time frame ([4]; versus other gliptins): considerably higher lung exposure; phospholipidosis induction (phospholipidosis): significant phospholipidosis at low concentrations; also recorded: induces phospholipidosis
